35 molecules from patent US9174932B2, “CaSR agonists” (AJINOMOTO CO., INC., priority 2008, dated 2015) can be followed below.

Each structure is given as a SMILES string. pEC50: −log10 of the molar value.

The target of this assay is T1, human CaSR (Homo sapiens, UniProt P41180, E1011Q).
T1 construct: expressed in transfected cells; host or cells: 293E cells (HEK293 expressing EBNA1, ATCC CRL-10852), transient transfection of hCaSR/pcDNA3.1
T1 sequence (P41180 20-1078 E1011Q): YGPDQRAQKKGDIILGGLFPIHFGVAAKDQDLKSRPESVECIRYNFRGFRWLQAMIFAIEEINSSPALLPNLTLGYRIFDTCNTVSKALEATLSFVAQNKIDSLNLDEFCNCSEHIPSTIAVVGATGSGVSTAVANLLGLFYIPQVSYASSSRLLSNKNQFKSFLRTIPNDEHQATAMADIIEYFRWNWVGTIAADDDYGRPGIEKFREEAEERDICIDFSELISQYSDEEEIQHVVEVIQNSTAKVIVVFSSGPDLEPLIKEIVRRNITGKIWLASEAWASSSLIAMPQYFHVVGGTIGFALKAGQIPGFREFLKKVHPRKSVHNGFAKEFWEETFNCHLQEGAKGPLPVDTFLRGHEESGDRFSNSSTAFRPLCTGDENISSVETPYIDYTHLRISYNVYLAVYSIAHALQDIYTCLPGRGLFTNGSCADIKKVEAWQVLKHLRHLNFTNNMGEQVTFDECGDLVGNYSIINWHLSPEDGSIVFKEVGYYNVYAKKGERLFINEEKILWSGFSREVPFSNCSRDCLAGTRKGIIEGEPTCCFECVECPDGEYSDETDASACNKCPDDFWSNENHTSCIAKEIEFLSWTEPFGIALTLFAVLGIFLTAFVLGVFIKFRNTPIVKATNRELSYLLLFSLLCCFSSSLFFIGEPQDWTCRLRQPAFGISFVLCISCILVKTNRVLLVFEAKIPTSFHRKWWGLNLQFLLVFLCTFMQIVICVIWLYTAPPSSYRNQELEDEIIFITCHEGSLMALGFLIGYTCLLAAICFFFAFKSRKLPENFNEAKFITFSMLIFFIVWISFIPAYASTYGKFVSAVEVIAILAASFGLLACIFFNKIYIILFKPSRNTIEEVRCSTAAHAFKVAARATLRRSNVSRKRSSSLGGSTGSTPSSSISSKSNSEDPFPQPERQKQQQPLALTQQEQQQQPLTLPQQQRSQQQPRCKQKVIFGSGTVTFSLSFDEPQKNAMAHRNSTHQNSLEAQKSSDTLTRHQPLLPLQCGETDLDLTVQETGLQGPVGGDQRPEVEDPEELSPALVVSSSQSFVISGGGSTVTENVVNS
As to the kind of experiment: Evaluation of CaSR agonistic activity (293E cells transfected with hCaSR, Ca2+ fluorescent indicator, FLIPR). The format is cell-based. The note with it: 293E cells expressing human CaSR; concentration giving activation rate 50%. As to the method:
293E cells (HEK293 cell expressing EBNA1, ATCC No. CRL-10852) were cultured in DMEM containing 10% fetal bovine serum (Dulbecco's modified Eagle medium containing […] Glucose, by NACALAI TESQUE, INC.), in the presence of 250 μg/mL of G418. The cells were spread on a petri dish of 10 cm diameter in 1.8×10^6 cells/15 mL. After leaving them in the CO2 incubator (5% CO2, 37° C.) for 24 hours, plasmid expressing human CaSR: hCaSR/pcDNA3.1 was transfected with a transfection reagent: Mirus TransIT 293 (by Takara Bio Inc.). After leaving it in the CO2 incubator for 24 hours, the cells were collected by DMEM containing 10% fetal bovine serum and seeded on poly-D-lysine coat 384 well plate (by Falcon) in 15,000 cells/well. After leaving them in the CO2 incubator for 24 hours, the medium was removed. Then, 50 μL/well of Ca^2+ fluorescent indicator: Calcium 4 Assay Kit (by Molecular Devices) that was dissolved in an assay buffer (146 mM NaCl, 5 mM KCl, 1 mM MgSO4, 1 mg/mL Glucose, 20 mM HEPES (pH 7.2), 1.5 mM CaCl2) was added thereto, and left at 37° C. for 1 hour and at room temperature for 30 minutes to absorb the fluorescent indicator. The 384 well plate was transferred to FLIPR (by Molecular Devices). Then, 12.5 μL/well of a compound that was dissolved in a 0.1% BSA containing assay buffer was added thereto, and change in fluorescence intensity was measured for 3 minutes. Meanwhile, Compound No. 20 was purchased from Bachem.
The difference between the maximum value and the minimum value (RFU(Max−Min)) of the fluorescence intensity before and after adding a compound was automatically calculated by FLIPR. RFU(Max−Min) when adding a compound in maximum concentration was defined as 100%; and RFU(Max−Min) when adding DMSO instead of the compound in the same concentration as that of the compound was defined as 0%.

In turn, `COc1c(NC(=O)OC[C@H](N)C(=O)O)cc(Cl)cc1S(=O)(=O)O` [Compound No. 36, O-{[(5-chloro-2-methoxy-3-sulfophenyl)amino]carbonyl}-L-serine] gave a pEC50 of 5.46. As for `Cc1ccc(C(=O)O)cc1NC(=O)CC[C@H](N)C(=O)O` [Compound No. 29, 4-methyl-3-(L-γ-glutamylamino)benzoic acid], the figure is 6.28; as for `N[C@@H](CCC(=O)Nc1ccccc1)C(=O)O` [Compound No. 20, N-γ-glutamyl-aniline], 6.03. As for `COc1c(NC(=O)CC[C@H](N)C(=O)O)cccc1C(=O)O` [Compound No. 27, 2-methoxy-3-(L-γ-glutamylamino)benzoic acid], the figure is 6.82; as for `N[C@@H](CCC(=O)Nc1ccc(Cl)c(S(=O)(=O)O)c1)C(=O)O` [Compound No. 9, N^5-(4-chloro-3-sulfophenyl)-L-glutamine], 6.57; as for `N[C@@H](CCC(=O)Nc1cc(I)ccc1S(=O)(=O)O)C(=O)O` [Compound No. 41, N^5-(5-iodo-2-sulfophenyl)-L-glutamine], 5.64. Under `N[C@@H](CCC(=O)Nc1cccc(C(=O)O)c1)C(=O)O` [Compound No. 14, 3-(L-γ-glutamylamino)benzoic acid] stands 5.70; under `COc1ccc(S(=O)(=O)O)cc1NC(=O)CC[C@H](N)C(=O)O` [Compound No. 3, N^5-(2-methoxy-5-sulfophenyl)-L-glutamine], 6.25. The molecule `COc1ccc(NC(=O)CC[C@H](N)C(=O)O)cc1S(=O)(=O)O` [Compound No. 2, N^5-(4-methoxy-3-sulfophenyl)-L-glutamine] showed a pEC50 of 5.64. As for `N[C@@H](CCC(=O)Nc1cccc(P(=O)(O)O)c1)C(=O)O` [Compound No. 18, N^5-(3-phosphonophenyl)-L-glutamine], the figure is 6.28; as for `Cc1c(Cl)cc(NC(=O)OC[C@H](N)C(=O)O)cc1S(=O)(=O)O` [Compound No. 33, O-{[(3-chloro-4-methyll-5-sulfophenyl)amino]carbonyl}-L-serine], 8.68; as for `N[C@@H](CCC(=O)Nc1ccc(S(=O)(=O)O)c(I)c1)C(=O)O` [Compound No. 40, N^5-(3-iodo-4-sulfophenyl)-L-glutamine], 5.10. The molecule `Cc1c(Cl)cc(S(=O)(=O)O)cc1NC(=O)OC[C@H](N)C(=O)O` [Compound No. 35, O-{[(3-chloro-2-methyl-5-sulfophenyl)amino]carbonyl}-L-serine] gave a negative logarithm of the EC50 (pEC50) of 8.43. Under `N[C@@H](CCC(=O)Nc1cc(Cl)cc(C(=O)O)c1Cl)C(=O)O` [Compound No. 24, 2,5-dichloro-3-(L-γ-glutamylamino)benzoic acid] stands 7.66; under `N[C@@H](COC(=O)Nc1cc(Cl)cc(S(=O)(=O)O)c1O)C(=O)O` [Compound No. 34, sodium 3-{[(2S)-2-amino-2-carboxyethoxycarbonyl]amino}-5-chloro-2-hydroxybenzenesulfonate], 8.72. Under `N[C@@H](CCC(=O)Nc1cc(Cl)cc(C(=O)O)c1)C(=O)O` [Compound No. 32, 5-chloro-3-(L-γ-glutamylamino)benzoic acid] stands 8.06; under `Cc1c(Cl)cc(NC(=O)CC[C@H](N)C(=O)O)cc1S(=O)(=O)O` [Compound No. 21, N^5-(3-chloro-4-methyl-5-sulfophenyl)-L-glutamine], 8.24; under `N[C@@H](CCC(=O)Nc1cc(S(=O)(=O)O)ccc1Cl)C(=O)O` [Compound No. 37, N^5-(2-chloro-5-sulfophenyl)-L-glutamine], 8.54. Under `N[C@@H](CCC(=O)Nc1ccc(O)c(S(=O)(=O)O)c1)C(=O)O` [Compound No. 11, N^5-(4-hydroxy-3-sulfophenyl)-L-glutamine] stands 7.07; under `N[C@@H](CCC(=O)Nc1cc(C(=O)O)ccc1Cl)C(=O)O` [Compound No. 26, 4-chloro-3-(L-γ-glutamylamino)benzoic acid], 6.80; under `N[C@@H](COC(=O)Nc1cccc(S(=O)(=O)O)c1)C(=O)O` [Compound No. 13, O-{[(3-sulfophenyl)amino]carbonyl}-L-serine], 7.14. `N[C@@H](CCC(=O)Nc1ccc(S(=O)(=O)O)c(Cl)c1)C(=O)O` [Compound No. 38, N^5-(3-chloro-4-sulfophenyl)-L-glutamine] showed a pEC50 of 5.17.

`CN(C(=O)CC[C@H](N)C(=O)O)c1cccc(S(=O)(=O)O)c1` [Compound No. 12, N^5-methyl-N^5-(3-sulfophenyl)-L-glutamine] showed a pEC50 of 6.70.

Take `N[C@@H](CCC(=O)Nc1ccc(O)c(C(=O)O)c1)C(=O)O` [Compound No. 28, 6-hydroxy-3-(L-γ-glutamylamino)benzoic acid]: the pEC50 was 6.48. Under `COP(=O)(O)c1cccc(NC(=O)CC[C@H](N)C(=O)O)c1` [Compound No. 17, N^5-{3-[hydroxyl(methoxy)phosphoryl]phenyl}-L-glutamine] stands 5.70; under `Cc1cc(C)c(S(=O)(=O)O)cc1NC(=O)CC[C@H](N)C(=O)O` [Compound No. 4, N^5-(2,4-dimethyl-5-sulfophenyl)-L-glutamine], 7.23. Regarding `N[C@@H](CCC(=O)Nc1cccc(S(=O)(=O)O)c1O)C(=O)O` [Compound No. 10, N^5-(2-hydroxy-3-sulfophenyl)-L-glutamine], the pEC50 is 7.77.

For `Cc1ccc(NC(=O)CC[C@H](N)C(=O)O)cc1S(=O)(=O)O` [Compound No. 5, N^5-(4-methyl-3-sulfophenyl)-L-glutamine], the pEC50 was 6.89. As for `N[C@@H](CCC(=O)Nc1cc(Br)cc(C(=O)O)c1)C(=O)O` [Compound No. 16, 3-bromo-5-(L-γ-glutamylamino)benzoic acid], the figure is 7.32; as for `N[C@@H](CCC(=O)Nc1cccc([N+](=O)[O-])c1)C(=O)O` [Compound No. 19, N^5-(3-nitrophenyl)-L-glutamine], 6.40; as for `N[C@@H](CCC(=O)Nc1cc([N+](=O)[O-])cc(S(=O)(=O)O)c1O)C(=O)O` [Compound No. 23, N^5-(2-hydroxy-5-nitro-3-sulfophenyl)-L-glutamine], 6.05. Under `N[C@@H](CCC(=O)Nc1cc(S(=O)(=O)O)ccc1O)C(=O)O` [Compound No. 8, N^5-(2-hydroxy-5-sulfophenyl)-L-glutamine] stands 7.00; under `N[C@@H](CCC(=O)Nc1cccc(C(=O)O)c1Cl)C(=O)O` [Compound No. 25, 2-chloro-3-(L-γ-glutamylamino)benzoic acid], 6.01; under `Cc1c(Cl)cc(S(=O)(=O)O)cc1NC(=O)CC[C@H](N)C(=O)O` [Compound No. 22, N^5-(3-chloro-2-methyl-5-sulfophenyl)-L-glutamine], 8.85.

Consider `N[C@@H](CCC(=O)Nc1cc(S(=O)(=O)O)cc([N+](=O)[O-])c1O)C(=O)O` [Compound No. 6, N^5-(2-hydroxy-3-nitro-5-sulfophenyl)-L-glutamine], for which the pEC50 was 5.57. This pEC50 lies 3.28 log units lower than the previous one.

In general, pEC50 refers to −log10 of the EC50, conventionally taken in molar units.
